Data as given in patent US10669284B2, “Fused thiazolopyrimidine derivatives as MNKS inhibitors” (LIFEARC, priority 2015, dated 2020).

Key:
PIP5K1A = PIP5K1A (Homo sapiens, UniProt Q99755); assay: Kinase selectivity screen PIP5K1A; details: read-out: % inhibition of PIP5K1A
IGF1R = IGF1R (Homo sapiens, UniProt P08069); assay: Kinase selectivity screen IGF1R; details: read-out: % inhibition of IGF1R
BLK = BLK (Homo sapiens, UniProt P51451); assay: Kinase selectivity screen BLK; details: read-out: % inhibition of BLK
PAK7 = PAK7 (Homo sapiens, UniProt Q9P286); assay: Kinase selectivity screen PAK7; details: read-out: % inhibition of PAK7
MAP2K1 = MAP2K1 (Homo sapiens, UniProt Q02750); assay: Kinase selectivity screen MAP2K1; details: read-out: % inhibition of MAP2K1
NUAK1 = target: T1, NUAK1 (Homo sapiens, UniProt O60285); assay: Kinase selectivity screen NUAK1; details: read-out: % inhibition of NUAK1
T1 sequence (O60285 1-661): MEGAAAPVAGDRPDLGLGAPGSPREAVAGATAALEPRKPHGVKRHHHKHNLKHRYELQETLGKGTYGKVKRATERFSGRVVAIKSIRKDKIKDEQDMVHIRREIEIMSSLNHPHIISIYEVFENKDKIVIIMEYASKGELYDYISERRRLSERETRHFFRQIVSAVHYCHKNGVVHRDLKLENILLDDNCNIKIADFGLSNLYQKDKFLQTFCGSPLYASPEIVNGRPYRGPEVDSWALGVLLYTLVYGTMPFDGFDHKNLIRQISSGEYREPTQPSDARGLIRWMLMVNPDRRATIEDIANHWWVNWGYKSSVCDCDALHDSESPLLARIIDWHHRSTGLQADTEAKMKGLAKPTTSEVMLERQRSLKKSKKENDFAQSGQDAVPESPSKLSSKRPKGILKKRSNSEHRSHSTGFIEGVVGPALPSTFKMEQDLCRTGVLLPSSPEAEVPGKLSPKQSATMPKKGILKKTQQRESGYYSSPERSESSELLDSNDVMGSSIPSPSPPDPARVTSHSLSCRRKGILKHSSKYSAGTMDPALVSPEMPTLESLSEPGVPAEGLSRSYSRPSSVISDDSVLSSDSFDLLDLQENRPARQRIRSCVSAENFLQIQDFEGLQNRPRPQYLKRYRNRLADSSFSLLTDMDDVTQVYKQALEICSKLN

ACVR1B = target: T2, ACVR1B (Homo sapiens, UniProt P36896); assay: Kinase selectivity screen ACVR1B; details: read-out: % inhibition of ACVR1B
T2 sequence (P36896 24-505): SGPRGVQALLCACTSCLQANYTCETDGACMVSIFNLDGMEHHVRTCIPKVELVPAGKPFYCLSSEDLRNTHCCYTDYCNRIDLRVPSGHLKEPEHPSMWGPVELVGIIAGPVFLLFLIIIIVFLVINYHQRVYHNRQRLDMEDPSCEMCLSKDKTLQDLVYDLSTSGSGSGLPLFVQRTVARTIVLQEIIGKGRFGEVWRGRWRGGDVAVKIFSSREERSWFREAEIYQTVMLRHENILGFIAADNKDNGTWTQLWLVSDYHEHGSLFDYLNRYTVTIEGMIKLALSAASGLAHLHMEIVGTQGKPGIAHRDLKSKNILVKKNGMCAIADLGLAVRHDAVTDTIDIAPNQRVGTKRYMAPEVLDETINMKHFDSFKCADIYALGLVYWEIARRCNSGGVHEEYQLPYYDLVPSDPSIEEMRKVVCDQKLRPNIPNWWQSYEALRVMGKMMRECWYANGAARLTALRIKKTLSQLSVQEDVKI

Full-length human MNK2 = target: T3, Full-length human MNK2 (Homo sapiens, UniProt Q9HBH9, T379D); assay: MNK2 biochemical IC50 assay (Caliper Mobility Shift Assay)
T3 construct: GST (N); purchased Carna Biosciences 02-146; host or cells: baculovirus expression system
T3 sequence (Q9HBH9 whole entry T379D): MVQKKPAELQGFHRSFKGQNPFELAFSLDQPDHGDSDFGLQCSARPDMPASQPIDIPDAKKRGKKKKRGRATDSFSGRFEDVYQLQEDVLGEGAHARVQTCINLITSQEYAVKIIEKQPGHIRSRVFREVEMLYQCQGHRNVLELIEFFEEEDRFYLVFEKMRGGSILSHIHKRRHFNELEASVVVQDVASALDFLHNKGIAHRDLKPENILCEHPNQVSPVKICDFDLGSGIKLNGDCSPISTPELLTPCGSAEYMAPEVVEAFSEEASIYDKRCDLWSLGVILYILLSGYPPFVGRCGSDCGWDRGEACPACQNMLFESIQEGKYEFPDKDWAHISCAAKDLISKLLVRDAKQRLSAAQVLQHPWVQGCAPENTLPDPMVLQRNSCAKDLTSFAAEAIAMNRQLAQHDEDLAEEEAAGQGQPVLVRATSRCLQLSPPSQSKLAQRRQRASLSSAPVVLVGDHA

Sequence of PIP5K1A (Q99755 whole entry, species assumed): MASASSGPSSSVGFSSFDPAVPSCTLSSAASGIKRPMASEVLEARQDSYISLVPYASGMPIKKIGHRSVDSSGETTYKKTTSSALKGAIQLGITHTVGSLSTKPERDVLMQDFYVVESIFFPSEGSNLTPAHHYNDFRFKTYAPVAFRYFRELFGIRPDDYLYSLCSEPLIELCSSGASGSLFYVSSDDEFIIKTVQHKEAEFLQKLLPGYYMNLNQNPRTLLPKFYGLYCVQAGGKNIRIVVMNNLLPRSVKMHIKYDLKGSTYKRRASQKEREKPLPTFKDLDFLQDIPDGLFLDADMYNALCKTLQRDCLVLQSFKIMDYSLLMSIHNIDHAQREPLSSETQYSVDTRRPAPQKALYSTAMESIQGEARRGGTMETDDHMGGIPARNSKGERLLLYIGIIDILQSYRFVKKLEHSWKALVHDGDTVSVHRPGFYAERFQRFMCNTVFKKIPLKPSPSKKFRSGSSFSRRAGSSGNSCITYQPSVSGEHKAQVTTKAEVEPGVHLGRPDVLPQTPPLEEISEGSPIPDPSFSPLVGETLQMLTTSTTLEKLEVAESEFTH
Sequence of BLK (P51451 whole entry, species assumed): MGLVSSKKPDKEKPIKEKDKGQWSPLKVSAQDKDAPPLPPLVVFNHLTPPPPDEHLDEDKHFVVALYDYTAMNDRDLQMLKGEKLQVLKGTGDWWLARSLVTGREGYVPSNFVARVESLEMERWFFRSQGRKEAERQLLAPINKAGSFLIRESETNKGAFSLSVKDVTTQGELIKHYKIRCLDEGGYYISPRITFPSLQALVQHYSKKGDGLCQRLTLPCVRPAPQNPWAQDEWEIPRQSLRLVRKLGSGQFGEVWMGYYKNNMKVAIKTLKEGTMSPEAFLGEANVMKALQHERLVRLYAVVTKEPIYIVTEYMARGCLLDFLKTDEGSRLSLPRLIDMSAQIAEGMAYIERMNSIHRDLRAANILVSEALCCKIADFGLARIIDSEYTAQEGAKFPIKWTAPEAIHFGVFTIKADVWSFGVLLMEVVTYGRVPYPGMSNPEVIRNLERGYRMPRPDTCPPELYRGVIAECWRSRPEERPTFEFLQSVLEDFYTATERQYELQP
Sequence of IGF1R (P08069 31-1367): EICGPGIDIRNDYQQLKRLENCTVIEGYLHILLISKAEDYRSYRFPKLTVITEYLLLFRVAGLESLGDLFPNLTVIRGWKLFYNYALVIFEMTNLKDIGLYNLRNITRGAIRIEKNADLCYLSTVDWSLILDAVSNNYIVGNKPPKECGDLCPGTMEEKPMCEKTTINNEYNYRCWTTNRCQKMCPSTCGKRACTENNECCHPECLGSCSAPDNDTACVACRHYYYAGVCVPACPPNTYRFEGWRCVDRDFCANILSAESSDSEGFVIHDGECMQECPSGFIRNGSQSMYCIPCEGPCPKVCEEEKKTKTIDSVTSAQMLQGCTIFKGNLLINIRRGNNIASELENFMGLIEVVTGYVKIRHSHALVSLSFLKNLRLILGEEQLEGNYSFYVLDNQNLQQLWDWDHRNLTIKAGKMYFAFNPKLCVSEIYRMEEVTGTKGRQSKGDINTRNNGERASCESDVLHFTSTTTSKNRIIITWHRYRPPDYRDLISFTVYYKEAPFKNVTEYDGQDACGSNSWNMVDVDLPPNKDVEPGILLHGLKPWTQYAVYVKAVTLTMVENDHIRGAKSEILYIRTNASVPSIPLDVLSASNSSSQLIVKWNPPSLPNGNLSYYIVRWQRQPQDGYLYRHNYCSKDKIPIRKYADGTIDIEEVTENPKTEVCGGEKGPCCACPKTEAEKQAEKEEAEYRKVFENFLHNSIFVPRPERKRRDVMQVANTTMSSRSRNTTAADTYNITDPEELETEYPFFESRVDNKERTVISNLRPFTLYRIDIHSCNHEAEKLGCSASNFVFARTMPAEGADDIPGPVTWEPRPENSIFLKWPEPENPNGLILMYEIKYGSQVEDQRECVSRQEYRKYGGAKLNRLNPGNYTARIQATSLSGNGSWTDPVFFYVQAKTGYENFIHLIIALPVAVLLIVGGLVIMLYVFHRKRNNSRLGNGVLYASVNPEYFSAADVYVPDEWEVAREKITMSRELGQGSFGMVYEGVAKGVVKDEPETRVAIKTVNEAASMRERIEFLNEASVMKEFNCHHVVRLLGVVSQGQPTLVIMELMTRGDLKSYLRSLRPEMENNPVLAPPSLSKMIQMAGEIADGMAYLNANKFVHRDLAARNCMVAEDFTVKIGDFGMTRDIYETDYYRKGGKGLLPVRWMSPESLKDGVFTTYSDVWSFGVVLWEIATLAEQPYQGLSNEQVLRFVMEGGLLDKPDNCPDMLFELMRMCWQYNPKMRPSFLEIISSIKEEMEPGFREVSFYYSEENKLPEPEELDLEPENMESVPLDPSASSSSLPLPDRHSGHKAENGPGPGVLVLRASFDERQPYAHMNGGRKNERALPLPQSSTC
Sequence of PAK7 (Q9P286 whole entry, species assumed): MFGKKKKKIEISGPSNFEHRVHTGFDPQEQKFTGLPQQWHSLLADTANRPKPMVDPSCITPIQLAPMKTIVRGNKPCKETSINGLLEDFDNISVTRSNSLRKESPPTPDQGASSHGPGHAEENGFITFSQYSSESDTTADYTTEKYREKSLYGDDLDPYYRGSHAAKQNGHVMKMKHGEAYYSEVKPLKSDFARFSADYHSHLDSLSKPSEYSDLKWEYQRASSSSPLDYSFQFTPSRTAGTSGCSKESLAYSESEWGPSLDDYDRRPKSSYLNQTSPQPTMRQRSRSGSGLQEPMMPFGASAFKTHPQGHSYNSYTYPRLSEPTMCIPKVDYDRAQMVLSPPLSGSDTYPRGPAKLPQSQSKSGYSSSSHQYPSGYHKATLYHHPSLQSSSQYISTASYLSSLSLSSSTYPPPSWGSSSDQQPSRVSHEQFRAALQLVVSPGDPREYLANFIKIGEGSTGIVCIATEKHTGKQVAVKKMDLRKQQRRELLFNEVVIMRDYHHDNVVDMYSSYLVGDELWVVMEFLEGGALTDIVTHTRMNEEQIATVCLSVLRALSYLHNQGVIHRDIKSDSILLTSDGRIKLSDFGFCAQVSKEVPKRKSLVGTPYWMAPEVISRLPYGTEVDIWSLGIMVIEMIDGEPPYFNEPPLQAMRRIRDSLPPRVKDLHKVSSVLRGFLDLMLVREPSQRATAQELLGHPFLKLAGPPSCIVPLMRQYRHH
Sequence of MAP2K1 (Q02750 whole entry, species assumed): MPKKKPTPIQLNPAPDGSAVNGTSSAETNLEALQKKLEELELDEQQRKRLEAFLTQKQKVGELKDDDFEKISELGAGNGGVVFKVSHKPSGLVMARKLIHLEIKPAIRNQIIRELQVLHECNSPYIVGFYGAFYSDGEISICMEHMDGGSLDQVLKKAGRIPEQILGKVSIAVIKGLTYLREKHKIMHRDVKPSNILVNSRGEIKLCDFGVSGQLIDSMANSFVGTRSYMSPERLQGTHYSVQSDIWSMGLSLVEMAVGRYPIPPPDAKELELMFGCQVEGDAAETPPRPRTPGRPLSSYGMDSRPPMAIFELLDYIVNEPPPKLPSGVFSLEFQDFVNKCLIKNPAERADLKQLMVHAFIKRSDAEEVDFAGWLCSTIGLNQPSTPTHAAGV

`CC(C)Oc1cc(F)ccc1Nc1ncnc2sc(C(=O)NCC3CCNCC3)nc12` [Example 10, 7-(4-fluoro-2-isopropoxy-anilino)-N-(4-piperidylmethyl)thiazolo[5,4-d]pyrimidine-2-carboxamide] showed an inhibition at 1 µM (PIP5K1A) of 2%, an inhibition at 1 µM (IGF1R) of 12% and an inhibition at 1 µM (BLK) of 18%. For the same molecule, the inhibition at 1 µM (PAK7) was 1%, the inhibition at 1 µM (MAP2K1) was 0% and the inhibition at 1 µM (NUAK1) was 15%. For the same molecule, the inhibition at 1 µM (ACVR1B) was 6% and the IC50 (Full-length human MNK2) was 50.1 nM.

With `CN(C)CCCNC(=O)c1nc2c(N3CCc4cc(F)ccc43)ncnc2s1` [Example 64, N-[3-(dimethylamino)propyl]-7-(5-fluoroindolin-1-yl)thiazolo[5,4-d]pyrimidine-2-carboxamide] the inhibition at 1 µM (PIP5K1A) was 0%, the inhibition at 1 µM (IGF1R) was 0% and the inhibition at 1 µM (BLK) was 1%. The inhibition at 1 µM (PAK7) was 0%, the inhibition at 1 µM (MAP2K1) was 5% and the inhibition at 1 µM (NUAK1) was 43%. The inhibition at 1 µM (ACVR1B) was 15% and the IC50 (Full-length human MNK2) was 2 nM.

`O=C(NCC1CCNCC1)c1nc2c(N3CCc4cc(F)ccc43)ncnc2s1` [Example 58, 7-(5-fluoroindolin-1-yl)-N-(4-piperidylmethyl)thiazolo[5,4-d]pyrimidine-2-carboxamide] gave an inhibition at 1 µM (PIP5K1A) of 1%, an inhibition at 1 µM (IGF1R) of 11% and an inhibition at 1 µM (BLK) of 0%. The inhibition at 1 µM (PAK7) was 0%, the inhibition at 1 µM (MAP2K1) was 7% and the inhibition at 1 µM (NUAK1) was 33%. For the same molecule, the inhibition at 1 µM (ACVR1B) was 0% and the IC50 (Full-length human MNK2) was 3.98 nM.
